Seven compounds from ChEMBL document CHEMBL1127988, “Differential binding and dopamine uptake activity of cocaine analogues modified at nitrogen” (Bioorg Med Chem Lett, 1994) can be followed below.

Experiment [1] addresses Sodium-dependent dopamine transporter (Rattus norvegicus, UniProt P23977). As to the kind of experiment: Binding affinity to inhibit [3H]mazindol binding in rat corpus striatum P2 synaptosomes. In kind it is subcellular.
For experiment [2], the species on record is Rattus norvegicus. As to the kind of experiment: Inhibitory activity towards [3H]dopamine uptake in rat corpus striatum P2 synaptosomes. In kind it is functional.
Experiment [3] concerns the target Sodium-dependent dopamine transporter (Rattus norvegicus) (UniProt P23977). Conditions: Corpus striatum; 1111 uM.
Description: Maximum percent inhibition of [3H]mazindol binding in rat corpus striatum P2 synaptosome at 1111 uM
For experiment [4] the target is unchanged. Briefly: Maximum percent inhibition of [3H]mazindol binding in rat corpus striatum P2 synaptosome at 1000 uM. Format: tissue-based.
The species entered for experiment [5] is Rattus norvegicus. Briefly: Maximum percent inhibition of dopamine uptake in rat corpus striatum P2 synaptosome at 1000 uM. In kind it is functional.

Chain of Sodium-dependent dopamine transporter (Rattus norvegicus) (P23977 whole entry): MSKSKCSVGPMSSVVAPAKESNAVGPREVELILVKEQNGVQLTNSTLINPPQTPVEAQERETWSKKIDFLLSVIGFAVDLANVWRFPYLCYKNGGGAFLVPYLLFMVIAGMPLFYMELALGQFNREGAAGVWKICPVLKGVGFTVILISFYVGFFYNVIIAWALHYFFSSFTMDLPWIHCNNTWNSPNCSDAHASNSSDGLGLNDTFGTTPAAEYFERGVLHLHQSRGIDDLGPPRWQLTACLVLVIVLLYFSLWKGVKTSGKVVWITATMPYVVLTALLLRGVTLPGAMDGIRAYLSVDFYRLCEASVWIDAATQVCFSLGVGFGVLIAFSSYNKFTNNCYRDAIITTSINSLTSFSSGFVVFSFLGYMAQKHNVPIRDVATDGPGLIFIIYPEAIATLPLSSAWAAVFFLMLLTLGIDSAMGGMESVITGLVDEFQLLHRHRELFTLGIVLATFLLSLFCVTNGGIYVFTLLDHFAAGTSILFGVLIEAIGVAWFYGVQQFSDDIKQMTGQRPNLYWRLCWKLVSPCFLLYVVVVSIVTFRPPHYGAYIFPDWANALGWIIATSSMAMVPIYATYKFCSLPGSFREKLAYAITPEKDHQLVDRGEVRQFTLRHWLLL
Chain of Sodium-dependent dopamine transporter (P23977 whole entry): as above

A word on the Ki: it is a dissociation constant, usually derived from enzyme kinetics or from competition with a known ligand. High values mean a looser hold on the target, low ones a stronger hold on the target. As usually defined, the inhibition is how much of the control response was suppressed. A lower inhibition goes with a response near the control. With `O=C(OC1CC2CCC3C1C(=O)NN23)c1ccccc1` (centres undefined), the results for the inhibition constant Ki (in experiment [1]; in the experiment listed under Rattus norvegicus [2]) were 44.9 µM and 115 µM, respectively. The inhibition in experiment [3] was 83%.

`COC(=O)C1C(OC(=O)c2ccccc2)CC2CCC1N2[N+](=O)[O-]` (centres undefined): the Ki in experiment [1] is 7.5 µM; in the experiment filed under Rattus norvegicus [2] it was 21.2 µM.

For `COC(=O)C1C(OC(=O)c2ccccc2)CC2CCC1N2NC(C)=O` (centres undefined), the inhibition constant (Ki) (in experiment [1]; in the experiment listed under Rattus norvegicus [2]) was above 1000 µM each time. Moreover, the inhibition in experiment [4] was determined as 42%; in the experiment listed under Rattus norvegicus [5], 41%.

For the compound `COC(=O)C1C(OC(=O)c2ccccc2)CC2CCC1N2CC(=O)O` (centres undefined), the Ki in experiment [1] was determined as 0.38 µM; in the experiment listed under Rattus norvegicus [2] it was 2.1 µM.

Regarding `COC(=O)C1C(OC(=O)c2ccccc2)CC2CCC1N2N=O` (centres undefined), the inhibition constant (Ki) in experiment [1] was 99.5 µM; in the experiment filed under Rattus norvegicus [2] it was 232 µM. Further, the inhibition in experiment [4] came out at 82%; in the experiment listed under Rattus norvegicus [5], 77%.

Take `COC(=O)C1C(OC(=O)c2ccccc2)CC2CCC1N2CCO` (centres undefined): the Ki came out at 0.7 µM in experiment [1] and 1.6 µM in the experiment listed under Rattus norvegicus [2].

Take `COC(=O)CN1C2CCC1C(C(=O)OC)C(OC(=O)c1ccccc1)C2` (centres undefined): the inhibition constant Ki in experiment [1] is 0.48 µM; in the experiment listed under Rattus norvegicus [2] it was 1.6 µM.
